Test results published in patent publication EP0315782A2, “Method for the production of proteins” (priority 1987, dated 1989).

Experiments:
Assay type in all cases: cell-based, chinesische Hamster
CHO-Zellen [1] = assay: t-PA production in transformed CHO cells, medium and determination method not stated
Description: (§1) Der Vektor für die t-PA-Produktion wurde in einem Subklon, CHO-K1-DUX B11, integriert (Urlaub et al., Proceedings of the National Academy of Science, USA, 77: 4216-4220, 1980). Diese Zell-Linie, eine Dihydrofolat Reduktase negative Mutante (DHFR-), ist für eine DHFR-abhängige Selektion der transfizierten Zellklone geeignet. Der Vektor für die humane c-DNA kann ein bekannter Plasmid-Vektor pBR-322 oder deren Abkömmling von Escherichia coli sein. Die Promotorregion für das in Frage kommende Gen und für das DHFR-Gen stammt aus SV 40 und die Terminationsregion für beide Gene von einem Hepatitis B-Oberflächenantigen. In den Beispielen wurden CHO-K1-DUX B11-Zellen, die durch die Plasmide pETPER oder pEPEFR transformiert sind, verwendet (siehe EP-A 0117059).
(§2) Die Zellkulturen werden bei 37°C in einem Hereaus-Brutschrank inkubiert und mit einem Kohlendioxid-Luftgemisch von 7,5% CO₂ in einer relativen Luftfeuchtigkeit von 100% belüftet. Je nach Verfahrensansatz werden unterschiedliche Kulturgefäße benutzt: Spinnergefäße für 100-1000 ml Medium, Roux-Schalen (Nunc) 175 cm² (70-100 ml Medium), 75 cm² (30-50 ml Medium), 25 cm² (7-10 ml Medium) und Mehrfachkulturschalen von Costar mit 2 cm² für 1 ml Kulturen. Für die Stammhaltung werden die Zellen in einer Dichte von 0,2-0,3 x 10⁶ Zellen/ml eingesetzt und alle 2-3 Tage subkloniert.
(§3) Die Protein-Produktion stimulierenden Substanzen können zu den verschiedenen Zeitpunkten jeweils in einer 1:100 Verdünnung zugegeben werden, d.h. sie wurden zuerst in Medium gelöst oder, wenn sie schwerlöslich sind, erst in Äthylalkohol gelöst und danach in Medium zugesetzt und dann das diese Substanz enthaltende Medium dem zellenthaltenden Medium im Verhältnis 1:100 v/v zugegeben.
(§4) In den folgenden Beispielen wurden, um die Stimulierung der t-PA-Synthese hervorzurufen, Zellen einer exponentiell wachsenden Kultur entnommen und in Plastikröhrchen (Falcon) 10 Min. bei 1000 x g in einer Beckmann T 3-6 Zentrifuge abzentrifugiert. Nach Dekantieren des Überstandes wurde das Zellpellet mit frischem Medium resuspendiert.
Aliquots von Zellüberständen und Zellextrakten wurden zu verschiedenen Zeitpunkten abgenommen bzw. hergestellt. Die Messung der Proben erfolgte entweder sofort oder nach Aufbewahrung bei -20°C mit folgenden Methoden: […]

CHO-Zellen [2] = assay: t-PA production in transformed CHO cells, serum-free medium, ELISA; conditions: for activation at 1 µM: CHO, Elisa, 1 ml supernatant vs control (0%), read-out: % Steigerung der t-PA-Synthese
Description: as §1
Als serumfreies Medium stehen verschiedene bekannte Produkte zur Verfügung (siehe z.B. BMFT-Statusseminar 12, 13. November 1985, Bundesministerium für Forschung und Technologie, 5300 Bonn 2, Seite 111-120). Im folgenden Beispiel wird ein nachseziertes DMEM/Ham's F 12 Medium (1:1) (Gibco) als serumfreies Medium verwendet. Als Zusatz wird fötales Kälberserum (FKS) in einer Konzentration von 7,5% oder 1-2% verwendet.
as §2, §3
as §4, with “resuspendiert. […]” for “resuspendiert.”
Mit Hilfe eines ELISA (Enzyme-linked-immuno-sorbent-assay) wurden die t-PA-Proben des Überstandes und des Zellextraktes quantitativ bestimmt. […]

CHO-Zellen [3] = assay: Cell growth / cell division of transformed CHO cells
Description: as §2
(§5) Für die Produktion von t-PA in serumhaltigem Medium wurde als frisches Medium F12/DMEM + 7,5% FKS + Gentamycin verwendet. Die resultierende Suspension kann in 2 cm² 24 Wells-Platten bei einer Zelldichte von 0,2-0,3 x 10⁶ Zellen/ml angesetzt werden.
(§6) Für die Produktion von t-PA in serumfreiem Medium wurden die Zellen zuvor 3-4 Tage in einem Medium von 1-2% FKS adaptiert, wieder abzentrifugiert und das Zellpellet in serumfreiem Medium resuspendiert und anschließend in 2 cm² 24 Wells-Platten in einer Zelldichte von 0,4-0,5 x 10⁶ Zellen/ml überführt.

CHO-Zellen [4] = assay: t-PA production in transformed CHO cells, serum-free medium (DCA or determination method not given)
Description: Diese Zell-Linie, eine Dihydrofolat Reduktase negative Mutante (DHFR-), ist für eine DHFR-abhängige Selektion der transfizierten Zellklone geeignet. […] Die Promotorregion für das in Frage kommende Gen und für das DHFR-Gen stammt aus SV 40 und die Terminationsregion für beide Gene von einem Hepatitis B-Oberflächenantigen.
Im folgenden Beispiel wird ein nachseziertes DMEM/Ham's F 12 Medium (1:1) (Gibco) als serumfreies Medium verwendet. Als Zusatz wird fötales Kälberserum (FKS) in einer Konzentration von 7,5% oder 1-2% verwendet.
as §2, §3, §4, §6
(§7) Aliquots von Zellüberständen und Zellextrakten wurden zu verschiedenen Zeitpunkten abgenommen bzw. hergestellt. Die Messung der Proben erfolgte entweder sofort oder nach Aufbewahrung bei -20°C mit folgenden Methoden:
Die Aktivität des Enzyms wurde anhand dieses vorgegebenen Standards berechnet.

CHO-Zellen [5] = assay: t-PA production in transformed CHO cells, medium with 7.5% FKS, supernatant, direct chromogenic assay (DCA); conditions: for activation at 1 µM / activation at 1000 µM: CHO; for activation at 1 µM: read-out: % Steigerung der t-PA-Synthese; for activation at 1000 µM: read-out: Steigerung der t-PA-Produktion
Description: as §1, §2, §3, §4, §5, §7
Von dem synthetischen Peptidsubstrat S-2288 (D-H-Ile-Pro-Arg-p-Nitroanilin) der Firma Kabi Diagnostica wird durch das t-PA p-Nitroanilin als Reaktionsprodukt gebildet. Die Aktivität von t-PA ist zur Bildung von p-Nitroanilin proportional, die bei […], 37°C, gemessen wird.
Die spektrophotometrische Bestimmung der Enzymkinetik wurde mit einem ACP-5010-Analysengerät der Firma Eppendorf automatisch durchgeführt.
Die Aktivität des Enzyms wurde anhand dieses vorgegebenen Standards berechnet. Eine t-PA-Standardreihe von 1-15 µg/ml wurde mit einem Laborstandard hergestellt, der zu 72% aus 1-kettigem Material besteht.
Die Substratlösung (100 mM Tris/106 mM NaCl) wurde in einer Konzentration von 50 mM eingesetzt.

CHO-Zellen [6] = assay: t-PA production in transformed CHO cells, medium with 7.5% FKS, supernatant and cell extract, ELISA; conditions: for activation at 1000 µM: CHO
Description: as §1, §2, §3, §4, §5, §7
Mit Hilfe eines ELISA (Enzyme-linked-immuno-sorbent-assay) wurden die t-PA-Proben des Überstandes und des Zellextraktes quantitativ bestimmt. Als Standard diente ein Laborstandard in einer Konzentrationsreihe von 0,038-5 µg/ml. Die Proben wurden 1:10 bis 1:1000 vorverdünnt.

## C[C@@]1(CO)[C@H](O)CC[C@@]2(C)[C@H]1CC[C@H]1C[C@@H]3C[C@@]12CC[C@]3(O)CO [Aphidicolin]
CHO-Zellen [1]; after 24 h, continued incubation with the substance
  t-PA-Ausbeute gesteigert: 44,9 ± 13,9%
CHO-Zellen [1]; during the 24 h incubation with the substance
  intrazelluläre t-PA-Konzentration erhöht: ca. 30%
CHO-Zellen [2]; Table 13, 1 µM, 144 h after medium change
  activation at 1 µM: 51.3%
CHO-Zellen [2]; Tables 13/14, 1 µM, 96 h after medium change
  activation at 1 µM: 36.7%
CHO-Zellen [2]; Tables 13/14, 1 µM, 120 h after medium change
  activation at 1 µM: 42%
CHO-Zellen [3]; CHO, 1 µM, after 24 h treatment, read-out: Hemmung des Zellwachstums
  inhibition at 1 µM: 5 to 10%
CHO-Zellen [4]; serum-free medium (Abb. 18)
  Maximum des Effekts nach Mediumwechsel: 48 h
CHO-Zellen [5]; 24 h
  activation at 1 µM: 40.2%
CHO-Zellen [5]; 48 h
  activation at 1 µM: 59.9%
CHO-Zellen [5]; 72 h
  activation at 1 µM: 32.8%
CHO-Zellen [5]; 96 h
  activation at 1 µM: 14.7%

## CCCC(=O)O [Na-Butyrat]
CHO-Zellen [2]; in 1 µM Aphidicolin-treated cultures, after 96 h
  weitere Steigerung der t-PA-Synthese: 14%
CHO-Zellen [6]; 24 h, read-out: Stimulierung der t-PA-Synthese extrazellulär
  activation at 1000 µM: 68.5%
CHO-Zellen [6]; 24 h, read-out: Stimulierung der t-PA-Synthese intrazellulär
  activation at 1000 µM: 90.9%
CHO-Zellen [6]; 48 h, read-out: Stimulierung der t-PA-Synthese extrazellulär
  activation at 1000 µM: 119%
CHO-Zellen [6]; 48 h, read-out: Stimulierung der t-PA-Synthese intrazellulär
  activation at 1000 µM: 99.7%
CHO-Zellen [6]; 72 h, read-out: Stimulierung der t-PA-Synthese extrazellulär
  activation at 1000 µM: 223%
CHO-Zellen [6]; 72 h, read-out: Stimulierung der t-PA-Synthese intrazellulär
  activation at 1000 µM: 93.9%
CHO-Zellen [6]; 96 h, read-out: Stimulierung der t-PA-Synthese extrazellulär
  activation at 1000 µM: 281%
CHO-Zellen [6]; 96 h, read-out: Stimulierung der t-PA-Synthese intrazellulär
  activation at 1000 µM: 210%
CHO-Zellen [6]; Elisa, starting value of the rise during the first 4 days
  t-PA-Konzentration im Überstand: 7,5 ± 1,1 µg t-PA/ 1 x 10⁶ Zellen
CHO-Zellen [6]; Elisa, value reached in the rise during the first 4 days
  t-PA-Konzentration im Überstand: 28,9 ± 5,3 µg t-PA/ 1 x 10⁶ Zellen
CHO-Zellen [6]; after 24 h incubation, vs control (Abb. 8)
  Zunahme des intrazellulären t-PA-Gehaltes: 43,8 ± 9,8%
CHO-Zellen [6]; value from which the content falls (until day 5) (Abb. 9C)
  intrazelluläre t-PA-Gehalt: 1,5 ± 0,2 µg t-PA/1 x 10⁶ Zellen
CHO-Zellen [4]; serum-free medium, 1 day after application
  Steigerung der t-PA-Synthese gegenüber der Kontrolle: 44,1 ± 7,1%
CHO-Zellen [4]; serum-free medium, 3 days after application
  maximale Steigerung: 143,3 ± 12,8%
CHO-Zellen [4]; serum-free medium, 6 days after addition
  Steigerungseffekt: 49,9 ± 7,0%
CHO-Zellen [5]; 48 h, Table 6, 1 mM at each medium change (Applikation Tag 0, 2, 4, 7), Mediumwechsel Tag 2, 1 ml supernatant vs control (0%)
  activation at 1000 µM: 33%
CHO-Zellen [5]; 96 h, Table 6, 1 mM at each medium change (Applikation Tag 0, 2, 4, 7), Mediumwechsel Tag 4, 1 ml supernatant vs control (0%)
  activation at 1000 µM: 107%
CHO-Zellen [5]; 168 h, Table 6, 1 mM at each medium change (Applikation Tag 0, 2, 4, 7), Mediumwechsel Tag 7, 1 ml supernatant vs control (0%)
  activation at 1000 µM: 96.6%
CHO-Zellen [5]; 216 h, Table 6, 1 mM at each medium change (Applikation Tag 0, 2, 4, 7), Mediumwechsel Tag 9, 1 ml supernatant vs control (0%)
  activation at 1000 µM: 62%
CHO-Zellen [5]; DCA, supernatant (Abb. 9B)
  maximaler t-PA-Gehalt: 47,4 ± 7,4 µg t-PA/1 x 10⁶ Zellen
CHO-Zellen [5]; after 24 h, average of DCA and Elisa, vs control
  prozentuale Steigerung im Überstand: 19,2%
CHO-Zellen [5]; day 3, medium with 7,5% FKS (Abb. 7)
  maximale Steigerung der t-PA-Produktion: 37,2 ± 5,1%

## O=C(O)CS [Thioglykolsäure]
CHO-Zellen [1]; day 5, medium not clearly stated
  extrazelluläre t-PA-Konzentration gegenüber der Kontrolle gesteigert: 10,7%
CHO-Zellen [6]; 1 mM, after 24 h (Abb. 17C)
  maximale intrazelluläre t-PA-Konzentration: 1,1 ± 0,1 µg/l x 10⁶ Zellen
CHO-Zellen [6]; 96 h, 1 mM, Elisa, per 1 x 10⁶ cells, day 4 (Abb. 17B), read-out: Steigerungsrate
  activation at 1000 µM: ~35%
CHO-Zellen [3]; serum-free medium
  Hemmung der Zellteilung: 10-20%
CHO-Zellen [5]; 24 h, Table 9, 1 mM, Zeit 24 h, Applikationstag 0, 7,5% FKS, 1 ml supernatant vs control (0%)
  activation at 1000 µM: 27.6%
CHO-Zellen [5]; 24 h, Table 9, 1 mM, Zeit 24 h, Applikationstag 1, 7,5% FKS, 1 ml supernatant vs control (0%)
  activation at 1000 µM: 34.7%
CHO-Zellen [5]; 24 h, Table 9, 1 mM, Zeit 24 h, Applikationstag 2, 7,5% FKS, 1 ml supernatant vs control (0%)
  activation at 1000 µM: 34.5%
CHO-Zellen [5]; 48 h, Table 9, 1 mM, Zeit 48 h, Applikationstag 0, 7,5% FKS, 1 ml supernatant vs control (0%)
  activation at 1000 µM: 16.9%
CHO-Zellen [5]; 48 h, Table 9, 1 mM, Zeit 48 h, Applikationstag 1, 7,5% FKS, 1 ml supernatant vs control (0%)
  activation at 1000 µM: 17.1%
CHO-Zellen [5]; 48 h, Table 9, 1 mM, Zeit 48 h, Applikationstag 2, 7,5% FKS, 1 ml supernatant vs control (0%)
  activation at 1000 µM: 16.3%
CHO-Zellen [5]; 72 h, Table 9, 1 mM, Zeit 72 h, Applikationstag 0, 7,5% FKS, 1 ml supernatant vs control (0%)
  activation at 1000 µM: 14.7%
CHO-Zellen [5]; 72 h, Table 9, 1 mM, Zeit 72 h, Applikationstag 1, 7,5% FKS, 1 ml supernatant vs control (0%)
  activation at 1000 µM: 10.2%
CHO-Zellen [5]; 72 h, Table 9, 1 mM, Zeit 72 h, Applikationstag 2, 7,5% FKS, 1 ml supernatant vs control (0%)
  activation at 1000 µM: 9.4%
CHO-Zellen [5]; 96 h, Table 9, 1 mM, Zeit 96 h, Applikationstag 0, 7,5% FKS, 1 ml supernatant vs control (0%)
  activation at 1000 µM: 3.4%
CHO-Zellen [5]; 96 h, Table 9, 1 mM, Zeit 96 h, Applikationstag 1, 7,5% FKS, 1 ml supernatant vs control (0%)
  activation at 1000 µM: 2.7%
CHO-Zellen [5]; 96 h, Table 9, 1 mM, Zeit 96 h, Applikationstag 2, 7,5% FKS, 1 ml supernatant vs control (0%)
  activation at 1000 µM: 0.5%
CHO-Zellen [5]; Table 8, 7,5% FKS, bracketed value = concentration of the single sample
  optimaler Dosisbereich: 1 mM
CHO-Zellen [5]; Table 8, mean ± SE, n = 6-19, runs of 3 days, added day 0 to 2, 7,5% FKS, 1 ml supernatant vs control (0%)
  % Steigerung der t-Pa-Synthese Durchschnitt: 31,2 ± 3,2%
CHO-Zellen [5]; Table 8, single sample, 7,5% FKS, 1 ml supernatant vs control (0%)
  % Steigerung der t-Pa-Synthese Maximum: 66,4%
CHO-Zellen [5]; duration of raised production after treatment, independent of application day
  t-PA-Produktion erhöht (Dauer): 72 h
CHO-Zellen [5]; time to maximal effect (Abb. 15)
  Maximalwert des Steigerungseffektes erreicht nach: 24 h
